Converted amounts (≈) assume the structure as drawn. Like-named read-outs stand apart in the source and are kept apart here.
Legend:
[1] = system: Lactococcus garvie Isolate 2; assay: MIC assay; assay type: cell-based, Lactococcus garvieae; conditions: for MIC50 / MIC90: Lactococcus
Method: The exact weighed amount was noted and the volume of solvent to reach a 80 mM dilution calculated. Half of the volume was added first, by adding Tween 80 and let stand for 5 minutes. In a second step, the other half of the volume DMSO was added and resuspended to help the dilution process. The closed tube was inverted 5-10 times and then vortexed very thoroughly for at least 30 seconds. If after this procedure crystals were still visible, the tube was placed in a shaker at 37° C. at 150 rpm for at least 30 minutes (it is indicated if the dissolution period was longer than 2 h). […] In case of Bis(4-Chlorophenyl) thiosulfonate, a lower concentrated stock solution of 2 mM needed to be prepared. For that, the required amount of compound was weighed in and 2% v/v Tween80 and 2% v/v DMSO of the end volume of the stock solution was added to the substance. This mix was heated in a water bath set to 40° C. and occasionally shaken. When the whole amount of the substance reached dissolution, the volume was filled up with growth medium until the end volume. This 2 mM stock solution of Bis(4-Chlorophenyl) thiosulfonate was used in the MIC plate and diluted two-fold, resulting in a testing range of Bis(4-Chlorophenyl) thiosulfonate from 1 mM to 0.002 mM.
The microorganisms as indicated in Table 4 were used to inoculate a tryptic soy agar (TSA) plate and incubated overnight at 37° C. After incubation 3-5 well-isolated colonies with the same morphology were selected from the TSA plate and resuspended in 2 mL 0.9% saline solution with 3-6 glass beads and vortexed. The optical density at 600 nm (OD600) of the bacterial suspension was measured with a spectrophotometer (Evolution™ 201/220 UV-Visible Spectrophotometer, Thermo Fisher Scientific) and diluted to an OD600 of 0.0008, which resembles 10^6 CFU/mL.
The MIC assay was performed in a flat-bottom 96-microtiter plate. 50 μL of MHB-II was added into columns 2-11, and 100 μL to column 12 for sterility control. 100 μL of the 8 mM test compound solution (method 1) was added to column 1. A two-fold dilution series of the solution in MHB-II was achieved by resuspending 50 μL of the 8 mM solution from column 1 to column 2. This step was repeated until column 10. The respective concentration of Tween 80 and DMSO in column 1 was 2.5%, which is two-fold diluted throughout the plate. 50 μL of the bacterial suspension was added to column 1-11. The microtiter plates were sealed with adhesive polyethylene film for sealing microplates (Diversified Biotech) and incubated for 24 h at 37° C. After incubation the OD was measured at 600 nm with the Varioskan (Thermo Fisher Scientific). The minimal concentration which causes reduction of final OD600 of the bacterial culture by 50% (MIC50) and by 90% (MIC90) was calculated after normalization of the obtained OD values to the growth control in column 11. This assay was repeated three times in three independent experiments.
Hereafter, the stock solutions of the compounds were used in three repetitions in a minimal inhibitory concentration (MIC) assay at a 2-fold dilution range with various bacteria from the gram-positive and gram-negative group and a yeast, Candida albicans. The concentrations that show only less than 10% growth after 24 h were considered the MIC90-values, whereas the concentrations that show 50% growth after 24 h when compared to the bacterial growth control were considered the MIC50-values. Escherichia coli and Staphylococcus aureus were used as representatives for a gram-negative bacteria and gram-positive bacteria, respectively. Furthermore, the yeast C. albicans was also tested.
In an Eppendorf tube between 10-20 mg of the test compound was weighed. Hereafter, the required amount of Tween 80 was added, followed by the amount DMSO. After vigorous shaking, the dissolved and transparent dilutions were diluted 10 times with Mueller Hinton Broth (MHB) for the MIC assay. […]

[2] = system: plant pathogens; assay: Colony diameter on agar plates, all tested fungi (conclusion); assay type: cell-based; conditions: conclusion of Example 7b
Method: In particular, the antimicrobial activity of bis(p-chlorophenyl) disulfide (AM2), bis(p-fluorophenyl) disulfide (AM3), bis(p-chlorophenyl) thiosulfonate (AM6) and diisopropyl thiosulfonate (AM8) of the invention is tested against pathogenic fungi selected from Pythium aphanidermatum, Phytophthora cinnamiomi, Fusarium oxysporum, Sclerotinia sclerotiorum, Rhizoctonia solani and Botrytis cinerea.
Experimental design. The effects of mentioned compounds on growth of the fungi were tested on agar plates with various dilutions of the compounds. The fungus was inoculated in the middle of the agar plate. At various time intervals the diameter of the colony was measured.
The fungi were pregrown on appropriate agar media, for example potato dextrose agar or malt extract agar at 24 C. After 3, 7, 10 and 14 days of incubation at 24 C, the diameter of the fungal colonies were measured on the agar plates. Since the agar plates have a diameter of 8 cm, this was the maximum colony size.
Agar media were prepared with various dilutions of bis(p-chlorophenyl) disulfide (AM2), bis(p-fluorophenyl) disulfide (AM3), bis(p-chlorophenyl) thiosulfonate (AM6) and diisopropyl thiosulfonate (AM8).
The test compounds were added to the agar media when the liquid agar medium was still hand-warm to prevent heat-dependent decomposition of the compounds. 50-fold concentrated stock solutions of the antimicrobial compounds of each dilution were prepared in 50% tween-80 and 50% DMSO (in this way the concentrations DMSO and tween 80 were the same in all agar plates). The following concentrations of the antimicrobial compounds were used for each strain in agar plates: 1.0 mM, 0.50 mM, 0.25 mM, 0.125 mM and 0.063 mM in the corresponding medium as indicated in table 12. Each concentration was tested in 4-fold in 8 cm diameter petridishes and each dish contained 11 ml agar medium.
Hereafter, the plates were inoculated in the middle of the dish. Incubation took place at 24 C. Colony diameters were measured at t=3, 7, 10 and 14 days after inoculation. Since the diameter of the petri dishes are 8 cm this diameter was the maximal diameter that was measured.

[3] = Example 2a, n = 3, Isolate 2, read-out: MIC90 Lactococcus garvie (+)
[4] = Example 2b, FIG. 1, no MIC90 detected in the tested range, read-out: Average MIC90 L. garvieae (Lg)

SMILES | MIC50 ([1]; Example 2a, n = 3, Isolate 2) | MIC90 [1, 3] | MIC90 [1, 4] | growth of plant pathogens [2] | MIC50 Lactococcus garvie (+) ([1]; Example 2a, n = 3, Isolate 2) | MIC90 Lactococcus garvie (+) ([1]; Example 2a, n = 3, Isolate 2)
Clc1ccc(SSc2ccc(Cl)cc2)cc1 [Bis (4-chlorophenyl) disulfide, Bis(4-chlorophenyl) disulfide] | 1350 µM (≈ 388 µg/mL) | > 4000 µM | > 1000 µM | clearly inhibited |  | 
O=S(=O)(Sc1ccc(Cl)cc1)c1ccc(Cl)cc1 [Bis (4-chlorophenyl) thiosulfonate, Bis(4-chlorophenyl) thiosulfonate] |  |  |  | clearly inhibited | 90 µM | 500 µM
Fc1ccc(SSc2ccc(F)cc2)cc1 [Bis (4-fluorophenyl) disulfide, Bis(4-fluorophenyl) disulfide] | 250 µM (≈ 63.6 µg/mL) | > 4000 µM | > 4000 µM | clearly inhibited |  | 
[O-][S+](Sc1ccc(F)cc1)c1ccc(F)cc1 (stereo not shown) [Bis (4-fluorophenyl) thiosulfinate, Bis(4-fluorophenyl) thiosulfinate] |  |  |  |  | 130 µM (≈ 35.1 µg/mL) | 830 µM (≈ 224 µg/mL)
O=S(=O)(Sc1ccc(F)cc1)c1ccc(F)cc1 [Bis (4-fluorophenyl) thiosulfonate, Bis(4-fluorophenyl) thiosulfonate] |  |  |  |  | 220 µM | 830 µM
CC(C)SS(=O)(=O)C(C)C [Di-isopropyl thiosulfonate] |  |  |  | clearly inhibited |  | 

— patent US20260083126A1, “ANTIMICROBIAL COMPOSITIONS” (AHV International B.V., priority 2022, published 2026)
